Literature values, collected in patent US20230165842A1, “NEW USES” (priority 2020, published 2023).
Like-named read-outs stand apart in the source and are kept apart here.

Tests used:
[1] = system: critically ill patients with COVID-19; details: compared to placebo or usual care
SARS-CoV-2 [2] = details: Vero E6; for IC50: 2 h pre-treatment, 24 h
SARS-CoV-2 [3] = details: virucidal activity; chlorphenamine maleate
SARS-CoV-2 [4] = details: Vero-E6
SARS-CoV-2 [5] = details: with increased concentrations; vs DMSO treated group
Vero-E6 cells = details: read-out: CC50 in
SARS-CoV-2 [6] = details: 10 μM; post-infection treatment; Vero E6; MOI 1
[7] = system: human coronavirus (HCoV)-229E; details: MRC5 cells
SARS-CoV-2 [8] = details: Vero E6; with reduced cytotoxicity
SARS-CoV-2 [9] = details: Yang et al., 2020
SARS-CoV-2 [10] = details: pre-treated Vero-E6; MOI 0.01; 24 hours; p<0.001 vs DMSO
SARS-CoV-2 [11] = details: pre-treated A549^AcE2; MOI 0.01; 24 hours; p<0.001 vs DMSO
SARS-CoV-2-Wuhan-Hu-1 = details: Vero C1008
HCoV-OC43 = details: Vero C1008; dose-dependent
IL1β = details: curcumin group
IL6 = details: curcumin group
IL-18 and TNF-α = details: before and after intervention
SARS-CoV-2 [12] = details: Calu-3
[13] = system: SARS-CoV-2 Spike pseudotyped virus; details: ACE2h HEK293T cells; Control = 1
ACE2 = ACE2 (Homo sapiens, UniProt Q9BYF1); details: cell membrane chromatography and surface plasmon resonance
SARS-CoV-2 [14] = details: treated 24 hours prior to infection; read-out: IC50 in Vero
SARS-CoV-2 [15] = details: treated 24 hours prior to infection; read-out: IC50 in Calu-3

Chain of ACE2 (Q9BYF1 18-805): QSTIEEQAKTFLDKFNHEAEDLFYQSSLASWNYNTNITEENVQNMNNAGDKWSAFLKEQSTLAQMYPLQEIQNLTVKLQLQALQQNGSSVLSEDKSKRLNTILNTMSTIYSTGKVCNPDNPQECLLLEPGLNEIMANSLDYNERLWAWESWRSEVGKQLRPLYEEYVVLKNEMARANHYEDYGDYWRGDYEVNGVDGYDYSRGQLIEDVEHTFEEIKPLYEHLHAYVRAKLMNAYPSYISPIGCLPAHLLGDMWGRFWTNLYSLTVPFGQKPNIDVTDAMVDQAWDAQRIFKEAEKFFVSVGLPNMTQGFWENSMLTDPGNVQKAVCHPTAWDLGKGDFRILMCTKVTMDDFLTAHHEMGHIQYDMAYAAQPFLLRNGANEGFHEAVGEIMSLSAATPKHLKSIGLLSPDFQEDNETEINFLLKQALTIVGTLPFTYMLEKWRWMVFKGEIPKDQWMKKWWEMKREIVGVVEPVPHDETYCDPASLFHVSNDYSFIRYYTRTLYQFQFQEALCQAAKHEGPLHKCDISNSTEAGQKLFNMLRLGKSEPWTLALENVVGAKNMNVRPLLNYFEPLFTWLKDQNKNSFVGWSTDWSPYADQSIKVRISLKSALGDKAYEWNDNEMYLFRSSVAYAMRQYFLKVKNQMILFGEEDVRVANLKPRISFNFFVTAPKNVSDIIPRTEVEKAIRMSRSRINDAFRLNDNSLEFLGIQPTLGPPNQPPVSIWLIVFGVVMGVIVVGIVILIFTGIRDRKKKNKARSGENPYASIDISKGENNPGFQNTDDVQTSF

C[C@]12CCC(=O)C=C1CC[C@@H]1[C@@H]2[C@@H](O)C[C@@]2(C)[C@H]1CC[C@]2(O)C(=O)CO [Compound 32, hydrocortisone]
odds ratio (OR) of mortality [1]: 0.69 (95% CI, 0.43-1.12; P = .13)

CN(C)CCC(c1ccc(Cl)cc1)c1ccccn1 (stereo not drawn) [Compound 16, chlorphenamine]
Selectivity Index (SI) (SARS-CoV-2 [2]; MOI 0.004): 3.78 | IC50 (SARS-CoV-2 [2]; MOI 0.004): 3.14 µM | Selectivity Index (SI) (SARS-CoV-2 [2]; MOI 0.01): 2.94 | IC50 (SARS-CoV-2 [2]; MOI 0.01): 4.03 µM | reduction in the viral load (SARS-CoV-2 [3]): 99.7% | CC50 (Vero E6 cells): 11.9 µM

Nc1ccn([C@@H]2O[C@H](CO)[C@@H](O)C2(F)F)c(=O)n1 [Compound 155, gemcitabine]
SI (SARS-CoV-2 [4]): 33 | EC50 (SARS-CoV-2 [4]; MOI 0.005): 1.24 µM | positive cells in IFA (SARS-CoV-2 [5]): significantly decreased positive cells | CC50 (Vero-E6 cells): > 40 µM

calcitriol [Compound 142]
reduction of SARS-CoV-2 titre (SARS-CoV-2 [6]): 1.3 log 10

Oc1ccc(C=Cc2cc(O)cc(O)c2)cc1 [Compound 192, resveratrol]
EC50 [7]: 4.6 µM | reduction of the viral titer [7]: 80% | viral titer on SARS-CoV-2 (SARS-CoV-2 [8]): showed a reduction of the viral titer

CC(CN1c2ccccc2Sc2ccccc21)N(C)C (stereo not drawn) [Compound 144, promethazine]
Selectivity Index (SI) (SARS-CoV-2 [2]; MOI 0.004): 4.62 | IC50 (SARS-CoV-2 [2]; MOI 0.004): 9.21 µM | Selectivity Index (SI) (SARS-CoV-2 [2]; MOI 0.01): 4.08 | IC50 (SARS-CoV-2 [2]; MOI 0.01): 10.4 µM | SARS-CoV-2 entry inhibition (SARS-CoV-2 [9]): SARS-CoV-2 entry inhibitor | CC50 (Vero E6 cells; Vero E6, listed as MOI 0.004): > 42.6 µM | CC50 (Vero E6 cells; Vero E6, listed as MOI 0.01): > 42.6 µM

CN1CCN(CCCN2c3ccccc3Sc3ccc(C(F)(F)F)cc32)CC1 [Compound 73, trifluoperazine]
SARS-COV-2 replication (vRNA levels) (SARS-CoV-2 [10]): successfully blocked | SARS-COV-2 replication (vRNA levels) (SARS-CoV-2 [11]): successfully blocked

C[S+]([O-])CCCCN=C=S (stereo not drawn) [Compound 139, sulforaphane]
SARS-CoV-2-Wuhan-Hu-1 virus-associated cell death (SARS-CoV-2-Wuhan-Hu-1; dose-dependent): effectively inhibited | IC50 (SARS-CoV-2-Wuhan-Hu-1; drug 1-2 hours before inoculation): 12 µM | cytotoxic dose TD50 (Vero C1008): 73 to 89 µM | HCoV-OC43 virus-associated cell death (HCoV-OC43): effectively inhibited | protein concentration in the bronchoalveolar lavage (BAL) (SARS-CoV-2/USA/WI1/2020; SFN daily oral gavage from one day prior to inoculation, vs untreated infected controls, P<0.0001): significantly lower | reduction in viral titers, alveolar fluid (SARS-CoV-2/USA/WI1/2020; vs untreated controls, P=0.04): 1.15 log | reduction in viral lung titers (SARS-CoV-2/USA/WI1/2020; vs untreated controls, normalized to PoI2Ra): 1.5 log

COc1cc(/C=C/C(=O)CC(=O)/C=C/c2ccc(O)c(OC)c2)ccc1O [Compound 21, curcumin]
IL1β mRNA expression level, after (IL1β; 160 mg daily for 14 days): 0.56 | IL1β mRNA expression level, before (IL1β; before intervention): 1.01 | IL6 mRNA expression level, after (IL6; 160 mg daily for 14 days): 0.58 | IL6 mRNA expression level, before (IL6; before intervention): 0.98 | expression level of IL-18 and TNF-α (IL-18 and TNF-α): no statistically significant differences

CCOC(=O)C1=C(C)NC(C)=C(C(=O)OC)C1c1cccc(Cl)c1Cl (stereo not drawn) [Compound 30, felodipine]
SI = CC50/EC50 (SARS-CoV-2 [12]): 9784.86 | CC50 (Calu-3 cells): 123 µM

CCOC(=O)N1CCC(=C2c3ccc(Cl)cc3CCc3cccnc32)CC1 [Compound 42, loratadine]
pseudotype entry (mean) [13]: 0.7 | binding to ACE2 (ACE2): could bind to ACE2

CCCCCC(=O)O[C@]1(C(C)=O)CC[C@H]2[C@@H]3CCC4=CC(=O)CC[C@]4(C)[C@H]3CC[C@@]21C [Compound 2, 17-hydroxyprogesterone-caproate]
IC50 (SARS-CoV-2 [14]): 6.3 µM | IC50 (SARS-CoV-2 [15]): 3.87 µM
